Read-outs that look alike come from different tables or passages of the source.
What was measured:
heparanase = target: T1, heparanase (Homo sapiens, UniProt Q9Y251); assay: AGA*IA assay: heparanase-catalyzed fondaparinux cleavage, colorimetric (WST-1); type: biochemical
T1 construct: 100 µM fondaparinux, 2.5 nM heparanase and serial dilutions of test compounds
T1 sequence (Q9Y251 158-543 limits assumed): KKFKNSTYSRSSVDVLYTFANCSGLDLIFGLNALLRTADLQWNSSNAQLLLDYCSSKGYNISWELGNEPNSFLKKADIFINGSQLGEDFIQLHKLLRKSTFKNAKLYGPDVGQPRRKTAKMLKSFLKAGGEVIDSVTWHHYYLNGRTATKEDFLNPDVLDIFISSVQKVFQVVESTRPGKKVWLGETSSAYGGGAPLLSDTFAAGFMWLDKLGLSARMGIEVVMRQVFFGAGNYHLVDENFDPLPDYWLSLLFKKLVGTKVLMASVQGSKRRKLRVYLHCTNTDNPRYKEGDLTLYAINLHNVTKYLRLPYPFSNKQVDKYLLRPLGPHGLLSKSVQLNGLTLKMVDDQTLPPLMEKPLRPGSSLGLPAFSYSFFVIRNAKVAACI
T1 sequence (Q9Y251 36-109 limits assumed): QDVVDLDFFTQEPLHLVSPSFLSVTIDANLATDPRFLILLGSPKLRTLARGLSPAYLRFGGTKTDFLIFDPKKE
Experimental: All compounds were tested in a simple, accurate and robust microplate assay based on the cleavage of the synthetic heparin fragment, the pentasaccharide Fondaparinux (AGA*IA). This assay was originally developed by Hammond and coworkers [Hammond E, Li CP, Ferro V. Development of a colorimetric assay for heparanase activity suitable for kinetic analysis and inhibitor screening. […] Fondaparinux is cleaved by heparanase to generate a reducing disaccharide, which can be quantitatively measured via a colorimetric or a fluorescence assay, the last by the fluorescent sensor polymer-H [Schiemann S, Lühn S, Alban S. Development of both colorimetric and fluorescence heparinase activity assays using fondaparinux as substrate.
The assay measures the appearance of the disaccharide product of heparanase-catalyzed fondaparinux cleavage colorimetrically using the tetrazolium salt WST-1. Assay was essentially performed as described with minor modifications. Briefly, NUNC ELISA 96-well plates were pre-treated with a solution of 4% BSA (bovin serum albumin) in phosphate-buffered saline containing 0.05% Tween 20 (PBST), for 2 h at 37°C, then washed three times with PBST, dried by tapping on paper towel and stored at -20°C. Before use, once again, the plates were washed with PBST.
Then, the absorbance at 560 nm was measured through a microplate reader (Victor 3, Perkin Elmer).
Finally, the measurements were corrected by subtracting both the reagent background and the inner absorbance value of test compound.

[1] = tested on: U2OS (human osteosarcoma); assay: SRB Cell Cytotoxicity Assay; type: cell-based; conditions: treated for 72h, read-out: Concentration of test compounds at which the cell growth is inhibited by 50 % U2OS
Description: (§1) SRB Cell Cytotoxicity Assay is an assay based upon the quantitative staining of cellular proteins by sulforhodamine B (SRB). This assay can be used for high-throughput drug screening (Vichai & Kirkitara, Nature Protocol. 2006, 1, 112). Sulforhodamine B is an anionic aminoxanthene dye that forms an electrostatic complex with the basic amino acid residues of proteins under moderately acid conditions, which provides a sensitive linear response.
(§2) To assess a putative antiproliferative activity of the selected compounds, HT1080 (human fibrosarcoma), U87MG (human glioblastoma astrocytoma) and U2OS (human osteosarcoma) cell lines were treated for 72h, in triplicate, with increasing concentrations of heparanase inhibitors. Inhibition of cell proliferation was then measured by the classical colorimetric SRB Cell Cytotoxicity assay. Absorbance was measured by spectrophotometer at a wavelength of 510 nm and cell proliferation was determined as percent with respect to control cells (cells treated with the vehicle alone). EC50 values were then determined by GraphPad Prism.

[2] = tested on: HT1080 (human fibrosarcoma); assay: SRB Cell Cytotoxicity Assay; type: cell-based; conditions: HT-1080, HT1080, treated for 72h, read-out: Concentration of test compounds at which the cell growth is inhibited by 50 % HT1080
Description: as §1, §2

[3] = tested on: U87MG (human glioblastoma astrocytoma); assay: SRB Cell Cytotoxicity Assay; type: cell-based; conditions: U-87 MG, treated for 72h, read-out: Concentration of test compounds at which the cell growth is inhibited by 50 % U87MG
Description: as §1, §2

[4] = 2.5 nM heparanase, 100 µM fondaparinux, pH 5.0, 3 h at 37°C, class symbols, read-out: AGAIA assay (IC50)

Row | Structure (SMILES) | IC50 (heparanase; [4]) | further results
1 | O=C(Nc1ccc2c(O)c(N=Nc3ccc(N=Nc4ccc(S(=O)(=O)O)cc4)cc3S(=O)(=O)O)c(S(=O)(=O)O)cc2c1)Nc1ccc2c(O)c(N=Nc3ccc(N=Nc4ccc(S(=O)(=O)O)cc4)cc3S(=O)(=O)O)c(S(=O)(=O)O)cc2c1 [SST0595] | – | IC50 (heparanase; read-out: AGAIA assay (IC50), 2.5 nM heparanase, 100 µM fondaparinux, pH 5.0, 3 h at 37°C, class symbols): 500 to 990 nM; EC50 [1]: > 10000 nM; EC50 [2]: > 10000 nM; EC50 [3]: > 10000 nM
2 | O=C(Nc1ccccc1C(=O)O)c1ccc2c(c1)C(=O)N(c1ccc(Oc3ccc(N4C(=O)c5ccc(C(=O)Nc6ccccc6C(=O)O)cc5C4=O)cc3)cc1)C2=O [SST0600, Benzoic acid, 2,2'-[oxybis[4,1-phenylene(1,3-dihydro-1,3-dioxo-2H-isoindole-2,5-diyl)carbonylimino]]bis-] | 1000 to 10000 nM | –
3 | O=C(Nc1ccccc1C(=O)O)c1ccc2c(c1)C(=O)N(c1ccc(S(=O)(=O)c3ccc(N4C(=O)c5ccc(C(=O)Nc6ccccc6C(=O)O)cc5C4=O)cc3)cc1)C2=O [SST0602, 2-[[2-[4-[4-[5-[(2-carboxyphenyl)carbamoyl]-1,3-dioxoisoindol-2-yl]phenyl]sulfonylphenyl]-1,3-dioxoisoindole-5-carbonyl]amino]benzoic acid] | 1000 to 10000 nM | –
4 | O=C(Nc1ccc(Br)cc1C(=O)O)c1ccc(Oc2ccc(C(=O)Nc3ccc(Br)cc3C(=O)O)cc2)cc1 [SST0604, 5-bromo-2-[[4-[4-[(4-bromo-2-carboxyphenyl)carbamoyl]phenoxy]benzoyl]amino]benzoic acid] | 1000 to 10000 nM | –
5 | O=C(Nc1ccc(NC(=O)c2ccc(N=Nc3ccc(O)cc3O)cc2)c(S(=O)(=O)O)c1)Nc1ccc(NC(=O)c2ccc(N=Nc3ccc(O)cc3O)cc2)c(S(=O)(=O)O)c1 [SST0610] | 1000 to 10000 nM | –
6 | Nc1ccc2cc(S(=O)(=O)O)cc(O)c2c1N=Nc1ccc(NC(=O)Nc2ccc(N=Nc3c(N)ccc4cc(S(=O)(=O)O)cc(O)c34)c(S(=O)(=O)O)c2)cc1S(=O)(=O)O [SST0753] | 1000 to 10000 nM | –
7 | O=C(Nc1cccc(C(=O)c2ccccc2)c1)c1ccc(Oc2ccc(C(=O)Nc3cccc(C(=O)c4ccccc4)c3)cc2)cc1 [SST0801] | 1000 to 10000 nM | –
8 | O=C(Nc1cccc(-c2nc3ccccc3s2)c1)c1ccc(Oc2ccc(C(=O)Nc3cccc(-c4nc5ccccc5s4)c3)cc2)cc1 [SST0802, N-[3-(1,3-benzothiazol-2-yl)phenyl]-4-[4-[[3-(1,3-benzothiazol-2-yl)phenyl]carbamoyl]phenoxy]benzamide] | 1000 to 10000 nM | –
9 | O=C(Nc1nc(-c2ccc3ccccc3c2)cs1)c1ccc(Oc2ccc(C(=O)Nc3nc(-c4ccc5ccccc5c4)cs3)cc2)cc1 [SST0803] | 1000 to 10000 nM | –
10 | O=C(Nc1csc(-c2ccc(Oc3ccc(-c4nc(NC(=O)c5ccc(C(=O)c6ccccc6)cc5)cs4)cc3)cc2)n1)c1ccc(C(=O)c2ccccc2)cc1 [SST0804] | 1000 to 10000 nM | –
11 | O=C(Nc1ccc(-c2nc3ccccc3o2)cc1)c1ccc(Oc2ccc(C(=O)Nc3ccc(-c4nc5ccccc5o4)cc3)cc2)cc1 [SST0805] | – | IC50 (heparanase): 1000 to 10000 nM
12 | O=C(O)/C=C/C(=O)Nc1ccc(Sc2ccc(Oc3ccc(Sc4ccc(NC(=O)/C=C/C(=O)O)cc4)cc3)cc2)cc1 [SST0806, (E)-4-[4-[4-[4-[4-[[(E)-3-carboxyprop-2-enoyl]amino]phenyl]sulfanylphenoxy]phenyl]sulfanylanilino]-4-oxobut-2-enoic acid] | 500 to 990 nM | EC50 [1]: > 2500 nM; EC50 [2]: > 2500 nM; EC50 [3]: > 2500 nM
13 | O=C(O)c1ccc(Oc2ccc3c(c2)C(=O)N(c2ccc(Oc4ccc(N5C(=O)c6ccc(Oc7ccc(C(=O)O)cc7)cc6C5=O)cc4)cc2)C3=O)cc1 [SST0807, 4-[2-[4-[4-[5-(4-carboxyphenoxy)-1,3-dioxoisoindol-2-yl]phenoxy]phenyl]-1,3-dioxoisoindol-5-yl]oxybenzoic acid] | 1000 to 10000 nM | –
14 | O=C(O)c1cc(NC(=O)c2ccc(Oc3ccc(C(=O)Nc4cc(C(=O)O)cc(C(=O)O)c4)cc3)cc2)cc(C(=O)O)c1 [SST0808, 5-[[4-[4-[(3,5-dicarboxyphenyl)carbamoyl]phenoxy]benzoyl]amino]benzene-1,3-dicarboxylic acid] | 1000 to 10000 nM | –
15 | O=C(O)c1ccc(NC(=O)c2ccc(Oc3ccc(C(=O)Nc4ccc(C(=O)O)cc4)cc3)cc2)cc1 [SST0809, 4,4'-[oxybis(benzene-4,1-diylcarbonylimino)]dibenzoic acid] | 1000 to 10000 nM | –
16 | O=C(Nc1ccc(O)cc1C(=O)O)c1ccc(Oc2ccc(C(=O)Nc3ccc(O)cc3C(=O)O)cc2)cc1 [SST0810] | 1000 to 10000 nM | –
17 | O=C(Nc1cccc(Oc2ccc(S(=O)(=O)c3ccc(Oc4cccc(NC(=O)c5ccc(F)cc5)c4)cc3)cc2)c1)c1ccc(F)cc1 [SST0812] | 1000 to 10000 nM | –
18 | O=C(O)c1ccc2c(c1)C(=O)N(c1ccc(Oc3ccc(Oc4ccc(N5C(=O)c6ccc(C(=O)O)cc6C5=O)cc4)cc3)cc1)C2=O [SST0813] | 1000 to 10000 nM | –
19 | O=C(Nc1nc(-c2ccc(F)cc2)cs1)c1ccc(Oc2ccc(C(=O)Nc3nc(-c4ccc(F)cc4)cs3)cc2)cc1 [SST0815] | 1000 to 10000 nM | –
20 | O=C(Nc1ccc(Oc2ccc(NC(=O)c3ccc4c(c3)C(=O)N(c3nccs3)C4=O)cc2)cc1)c1ccc2c(c1)C(=O)N(c1nccs1)C2=O [SST0816] | 1000 to 10000 nM | –
21 | O=C(Nc1ccc(O)cc1C(=O)O)c1ccc(S(=O)(=O)c2ccc(C(=O)Nc3ccc(O)cc3C(=O)O)cc2)cc1 [SST0817] | – | IC50 (heparanase): 500 to 990 nM
22 | CC(C)(c1ccc(Oc2ccc3c(c2)C(=O)N(c2cccc(C(=O)O)c2)C3=O)cc1)c1ccc(Oc2ccc3c(c2)C(=O)N(c2cccc(C(=O)O)c2)C3=O)cc1 [SST0851, 3-[5-[4-[2-[4-[2-(3-carboxyphenyl)-1,3-dioxoisoindol-5-yl]oxyphenyl]propan-2-yl]phenoxy]-1,3-dioxoisoindol-2-yl]benzoic acid] | 500 to 990 nM | EC50 [1]: > 2500 nM; EC50 [2]: > 2500 nM; EC50 [3]: > 2500 nM
23 | CC(C)(c1ccc(Oc2ccc3c(c2)C(=O)N(c2ccc(C(=O)O)cc2)C3=O)cc1)c1ccc(Oc2ccc3c(c2)C(=O)N(c2ccc(C(=O)O)cc2)C3=O)cc1 [SST0852, 4-[5-[4-[2-[4-[2-(4-carboxyphenyl)-1,3-dioxoisoindol-5-yl]oxyphenyl]propan-2-yl]phenoxy]-1,3-dioxoisoindol-2-yl]benzoic acid] | 1000 to 10000 nM | –
24 | O=C(O)c1ccc(Oc2cccc(N3C(=O)c4ccc(Oc5ccc6c(c5)C(=O)N(c5cccc(Oc7ccc(C(=O)O)c(C(=O)O)c7)c5)C6=O)cc4C3=O)c2)cc1C(=O)O [SST0853, 4-[3-[5-[2-[3-(3,4-dicarboxyphenoxy)phenyl]-1,3-dioxoisoindol-5-yl]oxy-1,3-dioxoisoindol-2-yl]phenoxy]phthalic acid] | 500 to 990 nM | EC50 [1]: > 2500 nM; EC50 [2]: > 2500 nM; EC50 [3]: > 2500 nM
25 | O=C(O)c1ccccc1N1C(=O)c2ccc(Oc3ccc(Oc4ccc5c(c4)C(=O)N(c4ccccc4C(=O)O)C5=O)cc3)cc2C1=O [SST0855, Benzoic acid, 2,2'-[1,4-phenylenebis[oxy(1,3-dihydro-1,3-dioxo-2H-isoindole-5,2-diyl)]]bis-] | 1000 to 10000 nM | –
26 | O=C(O)c1ccc2c(c1)C(=O)N(c1cccc(Oc3cccc(Oc4cccc(N5C(=O)c6ccc(C(=O)O)cc6C5=O)c4)c3)c1)C2=O [SST0857] | 1000 to 10000 nM | –
27 | O=C(O)c1ccc(N2C(=O)c3ccc(Oc4cccc(Oc5ccc6c(c5)C(=O)N(c5ccc(C(=O)O)cc5)C6=O)c4)cc3C2=O)cc1 [SST0860, Benzoic acid, 4,4'-[1,3-phenylenebis[oxy(1,3-dihydro-1,3-dioxo-2H-isoindole-5,2-diyl)]]bis-] | 1000 to 10000 nM | –

Reference: EP3381906A1, “COMPOUNDS FOR USE AS HEPARANASE INHIBITORS” (Leadiant Biosciences SA, priority 2017, dated 2018)
